Assays:
wheat = assay: Test B pre/postemergence wheat; format: in vivo, Triticum aestivum; settings: for Wheat plant response rating (0 to 10 scale): 0 is no effect
Procedure, shortened: (§1)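 Herbicidal effect was estimated by eye on a ten-point control scale after plants spent twelve to sixteen days in a greenhouse following soil or foliar treatment. Foliar sprays targeted plants at one to four leaves; all doses were formulated in a non-phytotoxic solvent with surfactant.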

wild oat = assay: Test B pre/postemergence wild oat; format: in vivo, Avena fatua; settings: for Wild oats plant response rating (0 to 10 scale): 0 is no effect
Procedure, shortened: as §1

crabgrass = assay: Test B pre/postemergence crabgrass; format: in vivo, Digitaria sanguinalis; settings: for Crabgrass plant response rating (0 to 10 scale): 0 is no effect
Procedure, shortened: as §1

cocklebur = assay: Test B pre/postemergence cocklebur; format: in vivo, Xanthium strumarium; settings: for Cocklebur plant response rating (0 to 10 scale): 0 is no effect
Procedure, shortened: as §1

[1] = Postemergence, Rate 62 g/ha, scale 0 to 10, 0 is no effect, 10 is complete control
[2] = Postemergence, Rate 125 g/ha, scale of 0 to 10 where 0 is no effect and 10 is complete control
[3] = Preemergence, Rate 62 g/ha, scale 0 to 10 (0 no effect, 10 complete control)
[4] = Preemergence, Rate 125 g/ha, 10 is complete control
[5] = Preemergence, Rate 250 g/ha, scale of 0 to 10 where 0 is no effect and 10 is complete control
[6] = Preemergence, Rate 500 g/ha, scale 0 (no effect) to 10 (complete control)
[7] = Rate 250 g/ha, Postemergence, scale 0 to 10, 0 is no effect, 10 is complete control
[8] = Rate 500 g/ha, Postemergence, scale 0 to 10, 0 no effect, 10 complete control
[9] = Postemergence, Rate 250 g/ha, scale 0 to 10, 0 no effect, 10 complete control
[10] = Preemergence, Rate 125 g/ha, scale 0 to 10 (0 no effect, 10 complete control)
[11] = Rate 62 g/ha, Postemergence, scale of 0 to 10 where 0 is no effect and 10 is complete control
[12] = Preemergence, Rate 500 g/ha, scale 0 to 10 (0 no effect, 10 complete control)
[13] = Preemergence, Rate 250 g/ha, scale 0 to 10, 0 is no effect, 10 is complete control
[14] = Rate 500 g/ha, Postemergence, scale 0 to 10

## Cc1nn(C)c(Cl)c1-n1c(=O)on(C(=O)N(c2ccc(F)cc2)C(C)C)c1=O [Compound 95]
wheat; [1]
  Wheat plant response rating: 0
wheat; [2]
  Wheat plant response rating: 0
wheat; [3]
  Wheat plant response rating: 0
wheat; [4]
  Wheat plant response rating (0 to 10 scale): 0
wheat; [5]
  Plant response rating, Wheat: 0
wheat; [6]
  Wheat plant response rating: 0
wheat; [7]
  Plant response rating, Wheat: 0
wheat; [8]
  Wheat plant response rating: 0
Wild oat; [1]
  Wild oats plant response rating: 0
Wild oat; [2]
  Wild oats plant response rating: 0
Wild oat; [3]
  Wild oats plant response rating: 0
Wild oat; [4]
  Wild oats plant response rating (0 to 10 scale): 0
Wild oat; [5]
  Plant response rating, Wild oats: 2
Wild oat; [6]
  Wild oats plant response rating: 5
Wild oat; [7]
  Plant response rating, Wild oats: 0
Wild oat; [8]
  Wild oats plant response rating: 3
crabgrass; [1]
  Crabgrass plant response rating: 0
crabgrass; [2]
  Crabgrass plant response rating: 0
crabgrass; [9]
  Crabgrass plant response rating: 6
crabgrass; [3]
  Crabgrass plant response rating: 2
crabgrass; [10]
  Plant response rating, Crabgrass: 6
crabgrass; [5]
  Plant response rating, Crabgrass: 8
crabgrass; [6]
  Crabgrass plant response rating: 8
crabgrass; [8]
  Crabgrass plant response rating: 8
cocklebur; [1]
  Cocklebur plant response rating: 0
cocklebur; [2]
  Cocklebur plant response rating: 0
cocklebur; [9]
  Cocklebur plant response rating: 1
cocklebur; [3]
  Cocklebur plant response rating: 0
cocklebur; [10]
  Plant response rating, Cocklebur: 0
cocklebur; [5]
  Plant response rating, Cocklebur: 0
cocklebur; [6]
  Cocklebur plant response rating: 0
cocklebur; [8]
  Cocklebur plant response rating: 2

## CCc1noc(C)c1-n1c(=O)on(C(=O)N(c2ccc(F)cc2)C(C)C)c1=O [Compound 101]
wheat; [2]
  Wheat plant response rating: 0
wheat; [3]
  Wheat plant response rating: 0
wheat; [4]
  Wheat plant response rating (0 to 10 scale): 0
wheat; [5]
  Plant response rating, Wheat: 0
wheat; [6]
  Wheat plant response rating: 0
wheat; [11]
  Wheat plant response rating: 0
wheat; [7]
  Plant response rating, Wheat: 0
wheat; [8]
  Wheat plant response rating: 0
Wild oat; [2]
  Wild oats plant response rating: 0
Wild oat; [3]
  Wild oats plant response rating: 0
Wild oat; [4]
  Wild oats plant response rating (0 to 10 scale): 0
Wild oat; [5]
  Plant response rating, Wild oats: 0
Wild oat; [6]
  Wild oats plant response rating: 0
Wild oat; [11]
  Wild oats plant response rating: 0
Wild oat; [7]
  Plant response rating, Wild oats: 0
Wild oat; [8]
  Wild oats plant response rating: 0
crabgrass; [2]
  Crabgrass plant response rating: 0
crabgrass; [9]
  Crabgrass plant response rating: 0
crabgrass; [3]
  Crabgrass plant response rating: 0
crabgrass; [10]
  Plant response rating, Crabgrass: 0
crabgrass; [5]
  Plant response rating, Crabgrass: 0
crabgrass; [6]
  Crabgrass plant response rating: 0
crabgrass; [11]
  Crabgrass plant response rating: 0
crabgrass; [8]
  Crabgrass plant response rating: 0
cocklebur; [2]
  Cocklebur plant response rating: 0
cocklebur; [9]
  Cocklebur plant response rating: 0
cocklebur; [3]
  Cocklebur plant response rating: 0
cocklebur; [10]
  Plant response rating, Cocklebur: 0
cocklebur; [5]
  Plant response rating, Cocklebur: 0
cocklebur; [11]
  Cocklebur plant response rating: 0
cocklebur; [8]
  Cocklebur plant response rating: 0

## CC(C)N(C(=O)n1oc(=O)n(-c2cnn(C)c2Cl)c1=O)c1ccccc1 [Compound 122]
wheat; [2]
  Wheat plant response rating: 0
wheat; [3]
  Wheat plant response rating: 0
wheat; [4]
  Wheat plant response rating (0 to 10 scale): 0
wheat; [5]
  Plant response rating, Wheat: 0
wheat; [12]
  Wheat plant response rating: 0
wheat; [11]
  Wheat plant response rating: 0
wheat; [7]
  Plant response rating, Wheat: 0
wheat; [8]
  Wheat plant response rating: 0
Wild oat; [2]
  Wild oats plant response rating: 0
Wild oat; [3]
  Wild oats plant response rating: 0
Wild oat; [4]
  Wild oats plant response rating (0 to 10 scale): 0
Wild oat; [5]
  Plant response rating, Wild oats: 3
Wild oat; [12]
  Wild oats plant response rating: 5
Wild oat; [11]
  Wild oats plant response rating: 0
Wild oat; [7]
  Plant response rating, Wild oats: 0
Wild oat; [8]
  Wild oats plant response rating: 0
crabgrass; [2]
  Crabgrass plant response rating: 3
crabgrass; [3]
  Crabgrass plant response rating: 4
crabgrass; [4]
  Crabgrass plant response rating (0 to 10 scale): 4
crabgrass; [5]
  Plant response rating, Crabgrass: 8
crabgrass; [12]
  Crabgrass plant response rating: 8
crabgrass; [11]
  Crabgrass plant response rating: 0
crabgrass; [7]
  Plant response rating, Crabgrass: 4
crabgrass; [8]
  Crabgrass plant response rating: 5
cocklebur; [2]
  Cocklebur plant response rating: 2
cocklebur; [3]
  Cocklebur plant response rating: 0
cocklebur; [5]
  Plant response rating, Cocklebur: 0
cocklebur; [11]
  Cocklebur plant response rating: 0
cocklebur; [7]
  Plant response rating, Cocklebur: 3
cocklebur; [8]
  Cocklebur plant response rating: 3

## CCOC(=O)Cn1c(=O)on(C(=O)N(c2ccc(F)cc2)C(C)C)c1=O [Compound 128]
wheat; [2]
  Wheat plant response rating: 0
wheat; [3]
  Wheat plant response rating: 0
wheat; [4]
  Wheat plant response rating (0 to 10 scale): 0
wheat; [13]
  Wheat plant response rating: 0
wheat; [12]
  Wheat plant response rating: 0
wheat; [11]
  Wheat plant response rating: 0
wheat; [7]
  Plant response rating, Wheat: 0
wheat; [14]
  Wheat plant response rating: 0
Wild oat; [2]
  Wild oats plant response rating: 0
Wild oat; [3]
  Wild oats plant response rating: 0
Wild oat; [4]
  Wild oats plant response rating (0 to 10 scale): 0
Wild oat; [13]
  Wild oats plant response rating: 0
Wild oat; [12]
  Wild oats plant response rating: 0
Wild oat; [11]
  Wild oats plant response rating: 0
Wild oat; [7]
  Plant response rating, Wild oats: 0
Wild oat; [14]
  Wild oats plant response rating: 0
crabgrass; [2]
  Crabgrass plant response rating: 0
crabgrass; [3]
  Crabgrass plant response rating: 0
crabgrass; [4]
  Crabgrass plant response rating (0 to 10 scale): 0
crabgrass; [13]
  Crabgrass plant response rating: 0
crabgrass; [12]
  Crabgrass plant response rating: 0
crabgrass; [11]
  Crabgrass plant response rating: 0
crabgrass; [7]
  Plant response rating, Crabgrass: 0
crabgrass; [14]
  Crabgrass plant response rating: 0
cocklebur; [2]
  Cocklebur plant response rating: 0
cocklebur; [3]
  Cocklebur plant response rating: 0
cocklebur; [4]
  Cocklebur plant response rating (0 to 10 scale): 0
cocklebur; [13]
  Cocklebur plant response rating: 0
cocklebur; [12]
  Cocklebur plant response rating: 0
cocklebur; [11]
  Cocklebur plant response rating: 0
cocklebur; [7]
  Plant response rating, Cocklebur: 0
cocklebur; [14]
  Cocklebur plant response rating: 0

## Cc1ccccc1Cn1c(=O)on(C(=O)N(c2ccc(Cl)cc2)C(C)C)c1=O [Compound 136]
wheat; [2]
  Wheat plant response rating: 0
wheat; [3]
  Wheat plant response rating: 0
wheat; [4]
  Wheat plant response rating (0 to 10 scale): 0
wheat; [13]
  Wheat plant response rating: 0
wheat; [12]
  Wheat plant response rating: 0
wheat; [11]
  Wheat plant response rating: 0
wheat; [7]
  Plant response rating, Wheat: 0
wheat; [14]
  Wheat plant response rating: 0
Wild oat; [2]
  Wild oats plant response rating: 0
Wild oat; [3]
  Wild oats plant response rating: 0
Wild oat; [4]
  Wild oats plant response rating (0 to 10 scale): 0
Wild oat; [13]
  Wild oats plant response rating: 0
Wild oat; [12]
  Wild oats plant response rating: 3
Wild oat; [11]
  Wild oats plant response rating: 0
Wild oat; [7]
  Plant response rating, Wild oats: 0
Wild oat; [14]
  Wild oats plant response rating: 3
crabgrass; [2]
  Crabgrass plant response rating: 2
crabgrass; [3]
  Crabgrass plant response rating: 0
crabgrass; [4]
  Crabgrass plant response rating (0 to 10 scale): 4
crabgrass; [13]
  Crabgrass plant response rating: 7
crabgrass; [12]
  Crabgrass plant response rating: 8
crabgrass; [11]
  Crabgrass plant response rating: 1
crabgrass; [7]
  Plant response rating, Crabgrass: 8
crabgrass; [14]
  Crabgrass plant response rating: 9
cocklebur; [2]
  Cocklebur plant response rating: 2
cocklebur; [3]
  Cocklebur plant response rating: 0
cocklebur; [4]
  Cocklebur plant response rating (0 to 10 scale): 0
cocklebur; [13]
  Cocklebur plant response rating: 0
cocklebur; [11]
  Cocklebur plant response rating: 1
cocklebur; [7]
  Plant response rating, Cocklebur: 2
cocklebur; [14]
  Cocklebur plant response rating: 4

Reference: patent publication US6737383B1, “Herbicidal oxadiazolidines” (priority 1999, dated 2004)
